This assay addresses recombinant human NSD2 (Homo sapiens (Human), UniProt O96028). Kind of assay: NSD2 inhibitory activity, modified RBC HotSpot HMT Assay (3H-SAM, oligonucleosome substrate). Format: biochemical. The settings on record: recombinant human NSD2 (2 nM), chicken oligonucleosomes 0.05 mg/ml, 3H-SAM 1 μM, 1 hour at 30° C. As for the experimental part:
Exemplary compounds were tested for NSD2 inhibitory activity using a modified RBC HotSpot HMT Assay.
A reaction mixture was prepared by adding oligonucleosomes from Chicken (0.05 mg/ml) to freshly prepared reaction buffer containing 50 mM Tris-HCl (pH 8.5), 50 mM NaCl, 5 mM MgCl2, 0.01% Brij35, 1 mM DTT, and 1% DMSO followed by the addition of recombinant human NSD2, (amino acids 2-end) with N-terminal His tag (2 nM; GenBank Accession No. NM_001042424; MW=155.5 kDa; expressed in Sf9 insect cells) and gentle mixing. The test compounds were diluted in DMSO, added to the reaction mixture in nanoliter amounts by using Acoustic Technology (Echo 550, LabCyte Inc. Sunnyvale, CA) and incubated for 20 minutes at room temperature. The reaction was initiated by the addition of S-Adenosyl-L-[methyl-^3H] methionine (3H-SAM; 1 μM), and the mixture was incubated for 1 hour at 30° C. The reaction mixture was delivered to filter paper and the methylated substrate was quantified by scintillation counting. Data analysis was performed using Excel and GraphPad Prism software for IC50 curve fits. For additional information on the histone methyltransferase assay, see, for example, Horiuchi K Y, et al., “Assay Development for Histone Methyltransferases,” Assay Drug Dev Technol. 2013 May; 11 (4): 227-36.

Our source for the IC50 values is patent US20250361235A1, “PIPERIDINYL-METHYLPURINE BENZENES AND RELATED COMPOUNDS AND THEIR USE IN TREATING DISEASES AND CONDITIONS” (K36 Therapeutics, Inc., priority 2022, published 2025).

recombinant human NSD2, sequence (O96028 2-1365 limits assumed): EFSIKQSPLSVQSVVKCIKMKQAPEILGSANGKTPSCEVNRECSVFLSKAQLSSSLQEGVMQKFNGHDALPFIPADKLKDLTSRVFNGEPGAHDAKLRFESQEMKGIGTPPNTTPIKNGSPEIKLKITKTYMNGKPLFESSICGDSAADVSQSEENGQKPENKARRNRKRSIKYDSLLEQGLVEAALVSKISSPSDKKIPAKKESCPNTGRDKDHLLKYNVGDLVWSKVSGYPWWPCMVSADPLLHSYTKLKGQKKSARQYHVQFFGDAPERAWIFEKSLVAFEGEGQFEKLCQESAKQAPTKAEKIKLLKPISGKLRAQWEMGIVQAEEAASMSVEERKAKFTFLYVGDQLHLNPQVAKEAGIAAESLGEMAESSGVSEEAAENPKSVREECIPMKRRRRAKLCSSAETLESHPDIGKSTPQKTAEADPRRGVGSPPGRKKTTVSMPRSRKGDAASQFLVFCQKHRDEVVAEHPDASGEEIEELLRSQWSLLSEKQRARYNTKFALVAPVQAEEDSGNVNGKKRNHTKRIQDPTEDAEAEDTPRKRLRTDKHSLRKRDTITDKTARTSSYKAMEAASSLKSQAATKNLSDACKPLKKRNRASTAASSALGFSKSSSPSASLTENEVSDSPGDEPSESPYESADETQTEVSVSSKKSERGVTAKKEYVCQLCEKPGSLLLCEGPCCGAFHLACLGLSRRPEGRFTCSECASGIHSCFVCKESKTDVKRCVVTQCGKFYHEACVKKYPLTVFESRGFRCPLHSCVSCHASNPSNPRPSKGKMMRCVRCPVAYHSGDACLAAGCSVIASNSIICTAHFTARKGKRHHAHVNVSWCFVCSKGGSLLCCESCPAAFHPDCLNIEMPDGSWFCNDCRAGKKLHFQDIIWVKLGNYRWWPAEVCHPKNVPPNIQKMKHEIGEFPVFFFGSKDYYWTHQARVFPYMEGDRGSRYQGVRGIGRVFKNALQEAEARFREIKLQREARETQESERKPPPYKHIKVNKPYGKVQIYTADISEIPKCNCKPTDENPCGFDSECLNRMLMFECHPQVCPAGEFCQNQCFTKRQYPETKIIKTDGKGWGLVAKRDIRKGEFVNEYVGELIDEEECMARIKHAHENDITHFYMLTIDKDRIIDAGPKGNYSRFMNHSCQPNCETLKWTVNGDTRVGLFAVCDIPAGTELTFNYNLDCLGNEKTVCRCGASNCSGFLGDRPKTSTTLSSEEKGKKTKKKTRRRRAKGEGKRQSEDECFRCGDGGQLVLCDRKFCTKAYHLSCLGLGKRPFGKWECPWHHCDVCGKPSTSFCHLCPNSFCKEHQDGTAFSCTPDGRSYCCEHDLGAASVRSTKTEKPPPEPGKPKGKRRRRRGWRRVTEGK

As usually defined, the IC50 is the concentration at which inhibition is half-maximal. Regarding `COc1cc(F)c(-c2ccc(N3CCC[C@](N)([C@H](O)C(F)F)C3)c(Cn3cnc4c(N)ncnc43)c2)cc1F` [Compound I-1, (S)-1-((R)-3-amino-1-(3-((6-amino-9H-purin-9-yl)methyl)-2′,5′-difluoro-4′-methoxy-[1,1′-biphenyl]-4-yl)piperidin-3-yl)-2,2-difluoroethan-1-ol], the IC50 is 1 to 10 nM.

As to `COc1cc(F)c(-c2cnc(N3CCC[C@](N)([C@H](O)C(F)F)C3)c(Cn3cnc4c(N)ncnc43)c2)cc1F` [II-1, (S)-1-((R)-3-amino-1-(3-((6-amino-9H-purin-9-yl)methyl)-5-(2,5-difluoro-4-methoxyphenyl)pyridin-2-yl)piperidin-3-yl)-2,2-difluoroethan-1-ol], the IC50 is 10 to 1000 nM. Turning to `COc1cc(F)c(-c2ccc(N3CCC[C@](N)([C@H](O)C(F)F)C3)c(Cn3cnc4c(N)ncnc43)n2)cc1F` [III-1, (S)-1-((R)-3-amino-1-(2-((6-amino-9H-purin-9-yl)methyl)-6-(2,5-difluoro-4-methoxyphenyl)pyridin-3-yl)piperidin-3-yl)-2,2-difluoroethan-1-ol], the IC50 was > 1000 nM.
